Measured values: US10005767B2, “Compositions and methods for inhibition of the JAK pathway” (Rigel Pharmaceuticals, Inc., priority 2009, dated 2018)

System: human primary T-cells, IL-2 stimulated proliferation (JAK-1 and JAK-3 dependent; reported as JAK3 activity)
Assay: Human primary T-cell proliferation stimulated by IL-2 (Example 3)
Format: cell-based
Conditions: tested under conditions described in Example 3 (IL-2 stimulated human primary T-cell proliferation); read-out: ability to inhibit JAK3 activity, IC50 range (Table V)
Procedure, shortened: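 Peripheral-blood human T-cells pre-activated via TCR/CD28, IL-2-starved overnight, then cultured 72 h at 37 °C with compound in Yssel's medium containing IL-2 (80 U/mL in cell suspension). Proliferation read as viable-cell ATP by CellTiter-Glo luminescence; reduction versus control taken as JAK pathway inhibition.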

Cc1cnc(Nc2ccc(OCC(N)=O)cc2)nc1Nc1ccc2oc(=O)[nH]c2c1 [Compound I-307, N2-(4-aminocarbonylmethoxy)phenyl-5-methyl-N4-(2-oxo-2,3-dihydro-1,3-benzoxazol-5-yl)-2,4-pyrimidinediamine] and Cc1cnc(Nc2cccc(OCC(N)=O)c2)nc1Nc1ccc2oc(=O)[nH]c2c1 [Compound I-319, N2-[3-(aminocarbonylmethoxy)]phenyl-5-methyl-N4-(2-oxo-2,3-dihydro-1,3-benzoxazol-5-yl)-2,4-pyrimidinediamine] cannot be ordered by IC50: less than 500 nM for the first, less than 500 nM for the second.

Cc1cnc(Nc2ccc(NC(=O)c3ccccc3)cc2)nc1Nc1ccc2oc(=O)[nH]c2c1 [Compound I-308, 5-methyl-N4-(2-oxo-2,3-dihydro-1,3-benzoxazol-5-yl)-N2-(4-phenylcarbonylamino)phenyl-2,4-pyrimidinediamine] and CCNC(=O)Nc1ccc(Nc2ncc(C)c(Nc3ccc4oc(=O)[nH]c4c3)n2)cc1 [Compound I-318, N2-[4-(ethylaminocarbonylamino)]phenyl-5-methyl-N4-(2-oxo-2,3-dihydro-1,3-benzoxazol-5-yl)-2,4-pyrimidinediamine] cannot be ordered by IC50: less than 500 nM for the first, less than 500 nM for the second.

CC(=O)N(C)c1ccc(Nc2ncc(C)c(Nc3ccc4oc(=O)[nH]c4c3)n2)cc1 [Compound I-309, N2-[4-(N-acetyl-N-methyl)amino]phenyl-5-methyl-N4-(2-oxo-2,3-dihydro-1,3-benzoxazol-5-yl)-2,4-pyrimidinediamine] and Cc1cnc(Nc2ccc(OC(C)(C)C(N)=O)cc2)nc1Nc1ccc2oc(=O)[nH]c2c1 [Compound I-324, N2-[4-(1-aminocarbonyl-1-methyl)ethoxy]phenyl-5-methyl-N4-(2-oxo-2,3-dihydro-1,3-benzoxazol-5-yl)-2,4-pyrimidinediamine] cannot be ordered by IC50: less than 500 nM for the first, less than 500 nM for the second.

Cc1cnc(Nc2ccc(N3CCCC3)c(C#N)c2)nc1Nc1ccc2oc(=O)[nH]c2c1 [Compound I-310, N2-[3-cyano-4-(pyrrolidin-1-yl)]phenyl-5-methyl-N4-(2-oxo-2,3-dihydro-1,3-benzoxazol-5-yl)-2,4-pyrimidinediamine] and Cc1cnc(Nc2ccc(N3CCOCC3)c(C#N)c2)nc1Nc1ccc2oc(=O)[nH]c2c1 [Compound I-327, N2-(3-cyano-4-morpholino)phenyl-5-methyl-N4-(2-oxo-2,3-dihydro-1,3-benzoxazol-5-yl)-2,4-pyrimidinediamine] cannot be ordered by IC50: less than 500 nM for the first, less than 500 nM for the second.

Cc1cnc(Nc2ccc(OC(F)F)cc2)nc1Nc1ccc2oc(=O)[nH]c2c1 [Compound I-311, N2-(4-difluoromethoxy)phenyl-5-methyl-N4-(2-oxo-2,3-dihydro-1,3-benzoxazol-5-yl)-2,4-pyrimidinediamine] and Cc1cnc(Nc2cccc(OC(F)F)c2)nc1Nc1ccc2oc(=O)[nH]c2c1 [Compound I-312, N2-(3-difluoromethoxy)phenyl-5-methyl-N4-(2-oxo-2,3-dihydro-1,3-benzoxazol-5-yl)-2,4-pyrimidinediamine] cannot be ordered by IC50: less than 500 nM for the first, less than 500 nM for the second.

CCOc1cc(Nc2ncc(C)c(Nc3ccc4oc(=O)[nH]c4c3)n2)ccc1OC(F)F [Compound I-313, N2-(4-difluoromethoxy-3-ethoxy)phenyl-5-methyl-N4-(2-oxo-2,3-dihydro-1,3-benzoxazol-5-yl)-2,4-pyrimidinediamine] and Cc1cnc(Nc2ccc(OC(F)F)c(Cl)c2)nc1Nc1ccc2oc(=O)[nH]c2c1 [Compound I-314, N2-(3-chloro-4-difluoromethoxy)phenyl-5-methyl-N4-(2-oxo-2,3-dihydro-1,3-benzoxazol-5-yl)-2,4-pyrimidinediamine] cannot be ordered by IC50: less than 500 nM for the first, less than 500 nM for the second.

Cc1cnc(Nc2cccc(OCC(=O)NC3CC3)c2)nc1Nc1ccc2oc(=O)[nH]c2c1 [Compound I-315, N2-[3-(cyclopropylaminocarbonylmethoxy)]phenyl-5-methyl-N4-(2-oxo-2,3-dihydro-1,3-benzoxazol-5-yl)-2,4-pyrimidinediamine] and Cc1cnc(Nc2cccc(OCC(=O)N(C)C)c2)nc1Nc1ccc2oc(=O)[nH]c2c1 [Compound I-326, N2-(3-dimethylaminocarbonylmethoxy)phenyl-5-methyl-N4-(2-oxo-2,3-dihydro-1,3-benzoxazol-5-yl)-2,4-pyrimidinediamine] cannot be ordered by IC50: less than 500 nM for the first, less than 500 nM for the second.

Cc1cnc(Nc2ccc(N3CCN(C)CC3)c(C(N)=O)c2)nc1Nc1ccc2oc(=O)[nH]c2c1 [Compound I-316, N2-[3-aminocarbonyl-4-(4-methylpiperazino)]phenyl-5-methyl-N4-(2-oxo-2,3-dihydro-1,3-benzoxazol-5-yl)-2,4-pyrimidinediamine] and CNC(=O)c1cc(Nc2ncc(C)c(Nc3ccc4oc(=O)[nH]c4c3)n2)ccc1N1CCN(C)CC1 [Compound I-323, 5-methyl-N2-[3-methylaminocarbonyl-4-(4-methylpiperazino)]phenyl-N4-(2-oxo-2,3-dihydro-1,3-benzoxazol-5-yl)-2,4-pyrimidinediamine] cannot be ordered by IC50: less than 500 nM for the first, less than 500 nM for the second.

Cc1cnc(Nc2ccc(OCC(=O)OC(C)C)cc2)nc1Nc1ccc2oc(=O)[nH]c2c1 [Compound I-317, N2-[4-(isopropoxycarbonylmethoxy)]phenyl-5-methyl-N4-(2-oxo-2,3-dihydro-1,3-benzoxazol-5-yl)-2,4-pyrimidinediamine] and Cc1cnc(Nc2ccc(OC(C)(C)C#N)cc2)nc1Nc1ccc2oc(=O)[nH]c2c1 [Compound I-334, N2-[4-(1-cyano-1-methyl)ethoxy]phenyl-5-methyl-N4-(2-oxo-2,3-dihydro-1,3-benzoxazol-5-yl)-2,4-pyrimidinediamine] cannot be ordered by IC50: less than 500 nM for the first, less than 500 nM for the second.

Cc1cnc(Nc2cccc(OCC(=O)N3CCOCC3)c2)nc1Nc1ccc2oc(=O)[nH]c2c1 [Compound I-320, 5-methyl-N2-[3-(morpholinocarbonylmethoxy)]phenyl-N4-(2-oxo-2,3-dihydro-1,3-benzoxazol-5-yl)-2,4-pyrimidinediamine] and COc1cccc(Nc2ncc(C)c(Nc3ccc4oc(=O)[nH]c4c3)n2)c1 [Compound I-337, N2-(3-methoxy)phenyl-5-methyl-N4-(2-oxo-2,3-dihydro-1,3-benzoxazol-5-yl)-2,4-pyrimidinediamine] cannot be ordered by IC50: less than 500 nM for the first, less than 500 nM for the second.

Cc1cnc(Nc2cccc(C(=O)N3CCN(C)CC3)c2)nc1Nc1ccc2oc(=O)[nH]c2c1 [Compound I-321, 5-methyl-N2-[3-(4-methylpiperazin-1-yl)carbonyl]phenyl-N4-(2-oxo-2,3-dihydro-1,3-benzoxazol-5-yl)-2,4-pyrimidinediamine] and Cc1cnc(Nc2ccc(C(=O)N3CCN(C)CC3)cc2)nc1Nc1ccc2oc(=O)[nH]c2c1 [Compound I-322, 5-methyl-N2-[4-(4-methylpiperazin-1-yl)carbonyl]phenyl-N4-(2-oxo-2,3-dihydro-1,3-benzoxazol-5-yl)-2,4-pyrimidinediamine] cannot be ordered by IC50: less than 500 nM for the first, less than 500 nM for the second.

CNC(=O)COc1cccc(Nc2ncc(C)c(Nc3ccc4oc(=O)[nH]c4c3)n2)c1C [Compound I-325, 5-methyl-N2-(2-methyl-3-methylaminocarbonylmethoxy)phenyl-N4-(2-oxo-2,3-dihydro-1,3-benzoxazol-5-yl)-2,4-pyrimidinediamine] and COc1cccc(Nc2ncc(C)c(Nc3ccc4oc(=O)[nH]c4c3)n2)c1C [Compound I-328, N2-(3-methoxy-2-methyl)phenyl-5-methyl-N4-(2-oxo-2,3-dihydro-1,3-benzoxazol-5-yl)-2,4-pyrimidinediamine] fall in the same range of IC50: 500 to 5000 nM for the first, 500 to 5000 nM for the second.

Compared with Cc1cnc(Nc2ccc(-c3ccncc3)c(Cl)c2)nc1Nc1ccc2oc(=O)[nH]c2c1 [Compound I-329, N2-[3-chloro-4-(pyridin-4-yl)]phenyl 5-methyl-N4-(2-oxo-2,3-dihydro-1,3-benzoxazol-5-yl)-2,4-pyrimidinediamine], Cc1cnc(Nc2ccc(-c3ccncc3)c(C(F)(F)F)c2)nc1Nc1ccc2oc(=O)[nH]c2c1 [Compound I-330, 5-methyl-N4-(2-oxo-2,3-dihydro-1,3-benzoxazol-5-yl)-N2-[4-(pyridin-4-yl)-3-trifluoromethyl]phenyl-2,4-pyrimidinediamine] is higher in IC50: 500 to 5000 nM for the first, 5000 to 10000 nM for the second. The first is the more potent here.

Cc1cnc(Nc2ccc(N3CCN(C)CC3)c(CO)c2)nc1Nc1ccc2oc(=O)[nH]c2c1 [Compound I-331, N2-[3-hydroxymethyl-4-(4-methylpiperazino)]phenyl-5-methyl-N4-(2-oxo-2,3-dihydro-1,3-benzoxazol-5-yl)-2,4-pyrimidinediamine] and CCNC(=O)N1CCN(c2ccc(Nc3ncc(C)c(Nc4ccc5oc(=O)[nH]c5c4)n3)cc2)CC1 [Compound I-333, N2-[4-(4-ethylaminocarbonyl)piperazino]phenyl-5-methyl-N4-(2-oxo-2,3-dihydro-1,3-benzoxazol-5-yl)-2,4-pyrimidinediamine] cannot be ordered by IC50: less than 500 nM for the first, less than 500 nM for the second.

Cc1cnc(Nc2ccc(N3CCNCC3)cc2)nc1Nc1ccc2oc(=O)[nH]c2c1 [Compound I-332, 5-methyl-N4-(2-oxo-2,3-dihydro-1,3-benzoxazol-5-yl)-N2-(4-piperazino)phenyl-2,4-pyrimidinediamine] and Cc1cnc(Nc2ccc(N3CCOCC3)cc2)nc1Nc1ccc2oc(=O)[nH]c2c1 [Compound I-338, 5-methyl-N2-(4-morpholino)phenyl-N4-(2-oxo-2,3-dihydro-1,3-benzoxazol-5-yl)-2,4-pyrimidinediamine] cannot be ordered by IC50: less than 500 nM for the first, less than 500 nM for the second.

Cc1cnc(Nc2cccc(OC(C)(C)C(N)=O)c2)nc1Nc1ccc2oc(=O)[nH]c2c1 [Compound I-335, N2-[3-(1-aminocarbonyl-1-methyl)ethoxy]phenyl-5-methyl-N4-(2-oxo-2,3-dihydro-1,3-benzoxazol-5-yl)-2,4-pyrimidinediamine] and COC(=O)c1ccc(Nc2ncc(C)c(Nc3ccc4oc(=O)[nH]c4c3)n2)cc1OC [Compound I-336, N2-(3-methoxy-4-methoxycarbonyl)phenyl-5-methyl-N4-(2-oxo-2,3-dihydro-1,3-benzoxazol-5-yl)-2,4-pyrimidinediamine] cannot be ordered by IC50: less than 500 nM for the first, less than 500 nM for the second.
